Results from patent publication US9328134B2, “Carbohydrate phosphonate derivatives as modulators of glycosylation” (AMGEN INC., priority 2013, dated 2016).

How the values were obtained:
CS-9 CHO cells [1] = assay: Cell viability by propidium iodide, run with the fucosylation assay; format: cell-based, Chinese hamster; details: Cricetulus griseus, 72 h, 3 days
Procedure: (§1) The effect of the example compounds on cell surface protein fucosylation was measured in CS-9 CHO cells. A range of amounts of example compound was added to produce various concentrations (100 μM-0.005 uM). These were added to cells grown in batch production CHO cell media in Costar 96-well clear round bottom polypropylene plates and incubated at 37° C. in the presence of 5% CO2. Commercially available standard batch production serum free CHO media such as CD OptiCHO (Invitrogen), Power CHO (Lonza), or ExCell 325 PF CHO (commercially available from Sigma Aldrich) may be used in accordance with the assay. After 3 days, cells were analyzed by fluorescence-activated cell sorting (FACS) using FITC-Lens culinaris agglutinin (FITC-LCA, Vector Laboratories Cat#FL-1041) according to the following procedure. After 3 days, 50 uL of FITC-LCA (3 ug/mL) was added to columns 1-11 and plates were incubated for 30 minutes. Plates were then centrifuged briefly (2,000 rpm), and the medium was aspirated away. Cells were washed three times with PBS with 1% BSA, resuspended in the same buffer, and analyzed on the BD LSRii instrument. Cells were simultaneously assayed for viability using propidium iodide.

[2] = as above; format: cell-based, Chinese hamster; details: Chinese hamster, 100 μM, CS-9 CHO cells, read-out: Cell Viability max activity at 100 μM
Procedure: as §1

[3] = test system: CHO cells expressing anti-TRAIL IgG1 antibody; assay: Production cultures to generate antibodies for glycan analysis (HILIC); format: cell-based, Chinese hamster
Procedure: Production Cultures to Generate Antibodies for Glycan Analysis
CHO cells expressing anti-TRAIL IgG1 antibody were seeded into serum-free growth medium in deep 24-well plates via 1:5 dilution. Any medium suitable for growth of CHO cells (i.e. PowerCHO by Lonza or OptiCHO by Invitrogen) can be used. The fucosylation inhibitor Example 1 compound was added to the cultures at inoculation at 5, 10, 20, 40, 80, 160 and 320 uM via 1:1000 dilution of stock solutions in DMSO. The cultures were placed into a shaking incubator (50 mm orbital diameter, 36° C., 5% CO2, 220 rpm). The growth and viability of the cultures were monitored throughout the length of the production assay. The cells were fed with feed medium and an amino acid supplement on days 3, 6 and 8. Cultures were harvested on day 10 via centrifugation and spent medium supernatants were submitted for titer analysis and protein A purification. Glycan analysis of purified antibodies was conducted via the HILIC assay.
To test whether daily doses of the Example 1 fucosylation inhibitor would result in higher inhibition profile, CHO cells expressing anti TRAIL IgG1 antibody were seeded into serum-free growth medium in deep 24-well plates via 1:5 dilution. The fucosylation inhibitor compound Example 1 (FIG. 2) and compound Example 3 (FIG. 3) were added to the cultures on a daily basis at 5, 10, 20, 40, 60, 80, and 100 uM levels via 1:1000 dilution of stock solutions in DMSO. The cultures were placed into a shaking incubator (50 mm orbital diameter, 36° C., 5% CO2, 220 rpm). The growth and viability of cultures were monitored throughout the length of the production assay. Starting on day 3, cells were centrifuged at 1000 rpm for 5 minutes, a fraction of the spent medium was removed and cells were replenished with the equivalent volume of production medium. Cultures were harvested on day 10 via a 10 minute centrifugation at 1000 rpm. Spent medium fractions collected during the course of the experiment were submitted for titer analysis. Spent medium fractions corresponding to select time-points were also purified on protein A. Glycan analysis of the purified antibodies is shown in FIGS. 2 and 3.
The PNGase F (New England Biolabs) enzymatically-released N-linked glycans from protein-purified anti-TRAIL IgG1 antibody were labeled with 2-aminobenzoic acid (2-AA) and separated by HILIC (hydrophilic interaction liquid chromatography) in-line with a fluorescence detector. The separation was performed using a Waters Acquity UPLC (Waters, Milford, Mass.). In-line MS, using an ion trap mass spectrometer (LTQ; Thermo Scientific, Waltham, Mass.) in positive mode, was incorporated to accommodate mass determination of species. Glycans were injected and bound to the column in high organic conditions and were then eluted with an increasing gradient of an aqueous ammonium formate buffer. Fast separation times were achieved using a […] small particle column format (Acquity UPLC BEH Glycan Column, 2.1×100 mm; Waters, Milford, Mass.). Total runtime including column re-equilibration for the MS compatible separation was 30 minutes. Glycan from cells treated with 320 uM Example 1 compound was 64% fucosylated vs. 77% for DMSO control, and contained 13% high mannose vs. 12% for DMSO control.

[4] = test system: cell surface protein fucosylation in CS-9 CHO cells; assay: Cell Surface Protein Fucosylation Assay (FACS with FITC-LCA); format: cell-based, Chinese hamster; details: Cricetulus griseus, 72 h, 3 days
Procedure: Cell Surface Protein Fucosylation Assay
as §1
The following table includes IC50 values obtained using the procedures set forth above for the Example compounds described herein.

[5] = Stability of inhibitor in the culture medium; format: physicochemical; details: cell culture medium
[6] = test system: cell surface protein high mannose in CS-9 CHO cells; assay: Assay for Cell Surface Protein High Mannose (FACS with FITC-labeled Concanavilin A); format: cell-based, Chinese hamster; details: Cricetulus griseus, 72 h, 3 days
Procedure: Assay for Cell Surface Protein High Mannose
as §1, with “high mannose” for “fucosylation”, “FITC-labeled Concanavilin A” for “FITC-Lens culinaris agglutinin (FITC-LCA, Vector Laboratories Cat#FL-1041)”

CS-9 CHO cells [7] = assay: Cell viability by propidium iodide, run with the high mannose assay; format: cell-based, Chinese hamster; details: Cricetulus griseus, 72 h, 3 days
Procedure: as §1, with “high mannose” for “fucosylation”, “FITC-labeled Concanavilin A” for “FITC-Lens culinaris agglutinin (FITC-LCA, Vector Laboratories Cat#FL-1041)”

[8] = as above; format: cell-based, Chinese hamster; details: Chinese hamster, 100 μM, CS-9 CHO cells, read-out: Cell Viability max activity at 100 μM
Procedure: as §1, with “high mannose” for “fucosylation”, “FITC-labeled Concanavilin A” for “FITC-Lens culinaris agglutinin (FITC-LCA, Vector Laboratories Cat#FL-1041)”

Compound | IC50 (CS-9 CHO cells [1]) [µM] | viability at 3 days, 100 µM [2] [%] | Incorporation of inhibitor molecule into the glycan ([3]; 320 uM, HILIC with in-line MS) | Glycan high mannose content ([3]; 320 uM, anti-TRAIL IgG1 glycan, HILIC, DMSO control 12%) [%] | Glycan fucosylated ([3]; 320 uM, anti-TRAIL IgG1 glycan, HILIC, DMSO control 77%) [%] | inhibition at 320 µM ([3]; Cricetulus griseus, CHO, 240 h, 320 uM added at inoculation, anti-TRAIL IgG1, harvest day 10, read-out: Maximum inhibition of fucosylation (afucosylation)) [%] | IC50 [4] [µM] | Stability of inhibitor in the medium [5] | IC50 [6] [µM] | IC50 (CS-9 CHO cells [7]) [µM] | viability at 3 days, 100 µM [8] [%] | Incorporation of inhibitor into antibody glycan ([3]; added to cell culture media on a daily basis, 5-100 uM)
CC(=O)O[C@@H]1[C@H](OC(C)=O)[C@H](C)O[C@H](CP(=O)(OCOC(=O)C(C)(C)C)OCOC(=O)C(C)(C)C)[C@H]1OC(C)=O [Example 1, (2S,3S,4R,5R,6S)-2-((bis((pivaloyloxy)methoxy)phosphoryl)methyl)-6-methyltetrahydro-2H-pyran-3,4,5-triyl triacetate] | > 100 | 94 | No trace of the inhibitor molecule was detectable in the glycan | 13 | 64 | ~10 | 21 | limited stability | – | – | – | –
CC(=O)OC[C@H]1O[C@H](CP(=O)(OCOC(=O)C(C)(C)C)OCOC(=O)C(C)(C)C)[C@@H](OC(C)=O)[C@@H](OC(C)=O)[C@@H]1OC(C)=O [Example 4, (2R,3R,4S,5S,6S)-2-(acetoxymethyl)-6-((bis((pivaloyloxy)methoxy)phosphoryl)methyl)tetrahydro-2H-pyran-3,4,5-triyl triacetate] | – | – | – | – | – | – | – | – | 33.1 | > 100 | 92 | –
CC(=O)OCOP(=O)(C[C@H]1O[C@@H](C)[C@@H](OC(C)=O)[C@@H](OC(C)=O)[C@@H]1OC(C)=O)OCOC(C)=O [Example 2, (2S,3S,4R,5R,6S)-2-((bis(acetoxymethoxy)phosphoryl)methyl)-6-methyltetrahydro-2H-pyran-3,4,5-triyl triacetate] | > 100 | 103 | – | – | – | – | 44 | – | – | – | – | –
CC(=O)N[C@@H]1[C@@H](OC(C)=O)[C@H](OC(C)=O)[C@@H](COC(C)=O)O[C@@H]1CP(=O)(OCOC(=O)C(C)(C)C)OCOC(=O)C(C)(C)C [Example 5, (((((2S,3R,4R,5S,6R)-3-acetamido-4,5-diacetoxy-6-(acetoxymethyl)tetrahydro-2H-pyran-2-yl)methyl)phosphoryl)bis(oxy))bis(methylene)bis(2,2-dimethylpropanoate)] | – | – | – | – | – | – | – | – | 3.4 | > 100 | 88 | –
CC(=O)O[C@H]1[C@H](OC(C)=O)[C@H](CP(=O)(OCOC(=O)C(C)(C)C)OCOC(=O)C(C)(C)C)O[C@@H](C(F)(F)F)[C@H]1OC(C)=O [Example 3, (2R,3S,4R,5S,6R)-2-((bis((pivaloyloxy)-methoxy)phosphoryl)methyl)-6-(trifluoromethyl)tetrahydro-2H-pyran-3,4,5-triyl triacetate] | > 100 | 90 | – | – | – | – | 7 | – | – | – | – | some incorporation of part of the inhibitor
